Assay type in all cases: cell-based
In assay [1] the test system is anergic human T-cells. Briefly: Anergic T-cell activation assessed by IFNγ secretion (ionomycin-induced anergy). To be noted: anergic T-cells re-challenged with anti-CD3 and anti-CD28 for 24 hours, read-out: IFNγ Fold change from baseline. A digest of the protocol:
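Human primary T-cells (>95% CD3+) were activated with anti-CD3/anti-CD28 for 2 days, rested 3 days, then made anergic with ionomycin for 18-24 h. Compound (e.g. 10, 1.11, 0.37 μM) was added for 1 h before 24 h anti-CD3/CD28 re-challenge; IFNγ by ELISA or Luminex as fold over untreated anergic baseline, binned A ≤2.50, B 2.51-4.00, C >4.01.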

Assay [2] concerns human T-cells with allogenic immature dendritic cells. Briefly: Allogenic mixed lymphocyte reaction (MLR), T-cell proliferation. To be noted: 120 h, 5 days, baseline T-cells without Cbl-b inhibitor, read-out: Proliferation, fold change over baseline. A digest of the protocol: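 CFSE-labelled primary human T-cells, preincubated with Cbl-b inhibitor, stimulated by allogenic immature dendritic cells derived from monocytes with GM-CSF (30 ng/mL) and IL-4 (20 ng/mL) over 7 days. Proliferation by flow cytometry, expressed as fold over inhibitor-free baseline; >2-fold counted positive.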

Assay [3] concerns primary human B cells. Briefly: B cell activation assay (CD69 on anti-IgM stimulated B cells). To be noted: AUC of dose response curve (10 μM to 1 nM) of CD69 MFI normalized to DMSO control. A digest of the protocol: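 Negatively selected PBMC-derived B cells (>95% CD20+) treated with Cbl-b inhibitors from 10 μM to 1 nM (DMSO <0.5%) and stimulated with anti-IgM for 20 h at 37° C. CD69 MFI on CD20+ IgD+ cells by flow cytometry; dose-response AUC normalized to DMSO plus 2.5 μg/mL anti-IgM-F(ab′)2, binned A-D.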

Assay [4] has as its system T-cell. Briefly: IL-2 secretion from T-cells stimulated with anti-CD3 antibody alone (Biological Example 2). Conditions: primary human total T-cells, read-out: IL-2 secretion, Anti-CD3 stimulation, fold change over baseline; for fold induction at 1 µM: 1 μM compound; for fold induction at 8 µM: 8 μM compound.
Assay [5] has as its system T-cell. Briefly: CD25 cell surface staining on T-cells stimulated with anti-CD3 antibody alone (Biological Example 2). To be noted: primary human total T-cells, baseline = anti-CD3/anti-CD28 stimulated cells without inhibitor, read-out: CD25 staining, Anti-CD3 stimulation, fold change over baseline; for fold induction at 1 µM: 1 μM compound; for fold induction at 8 µM: 8 μM compound.

Regarding `C[C@H](Sc1nncn1C)c1cccc(NC(=O)c2cc(C(=O)N3CC[C@H](O)C3)ccn2)c1` [Compound 140, 4-[[(3S)-3-hydroxypyrrolidin-1-yl]carbonyl]-N-[3-[(1S)-1-[(4-methyl-4H-1,2,4-triazol-3-yl)sulfanyl]ethyl]phenyl]pyridine-2-carboxamide], in assay [1], the fold induction at 0.37 µM is at most 2.5, the fold induction at 1.11 µM was at most 2.5 and the fold induction at 10 µM fell in the range of 2.51 to 4. Moreover, in assay [2], the fold induction at 3 µM was below 2 and the fold induction at 10 µM was below 2. The “CD69 MFI AUC” value in assay [3] is listed as “A (A indicates ≤0.5)”.

In the case of `C[C@H](Cc1nncn1C)c1cccc(NC(=O)c2cccc(CCO)n2)c1` [Compound 202, 6-(2-hydroxyethyl)-N-[3-[(2R)-1-(4-methyl-4H-1,2,4-triazol-3-yl)propan-2-yl]phenyl]pyridine-2-carboxamide], in assay [1], the fold induction at 0.37 µM is at most 2.5, the fold induction at 1.11 µM was at most 2.5 and the fold induction at 10 µM fell in the range of 2.51 to 4. Further, in assay [2], the fold induction at 3 µM is below 2 and the fold induction at 10 µM is below 2. The “CD69 MFI AUC” value in assay [3] is given as “C (C indicates 1.01-1.50)”.

Take `C[C@H](Cc1nncn1C)c1cccc(N2Cc3c(ccnc3C3CC3)C2=O)c1` [Compound 257, 4-cyclopropyl-2-[3-[(1R)-1-methyl-2-(4-methyl-1,2,4-triazol-3-yl)ethyl]phenyl]-3H-pyrrolo[3,4-c]pyridin-1-one]: in assay [1], the fold induction at 0.37 µM was at most 2.5, the fold induction at 1.11 µM is at most 2.5 and the fold induction at 10 µM was in the range of 2.51 to 4. Further, in assay [2], the fold induction at 3 µM is below 2 and the fold induction at 10 µM was below 2. Besides, in assay [3], the “CD69 MFI AUC” value is listed as “B (B indicates 0.5-1.00)”.

As to `Cn1cnnc1[C@@H]1C[C@@H]1c1cccc(N2Cc3c(cccc3C(F)(F)F)C2=O)c1` [Compound 282, 2-(3-((1S,2R)-2-(4-methyl-4H-1,2,4-triazol-3-yl)cyclopropyl)phenyl)-4-(trifluoromethyl)isoindolin-1-one], in assay [1], the fold induction at 0.37 µM was at most 2.5, the fold induction at 1.11 µM is at most 2.5 and the fold induction at 10 µM is at most 2.5. For the same molecule, in assay [2], the fold induction at 3 µM is below 2 and the fold induction at 10 µM was below 2. For the same molecule, the “CD69 MFI AUC” value in assay [3] is “B (B indicates 0.5-1.00)”.

In the case of `C[C@H](Cc1nncn1C)c1ccnc(NC(=O)c2cccc(C(F)(F)F)n2)c1` [Compound 302, (R)-N-(4-(1-(4-methyl-4H-1,2,4-triazol-3-yl)propan-2-yl)pyridin-2-yl)-6-(trifluoromethyl)picolinamide], in assay [1], the fold induction at 0.37 µM was at most 2.5, the fold induction at 1.11 µM was at most 2.5 and the fold induction at 10 µM is at most 2.5. In assay [2], the fold induction at 3 µM is below 2 and the fold induction at 10 µM was below 2. Besides, the “CD69 MFI AUC” value in assay [3] was “B (B indicates 0.5-1.00)”.

Consider `C[C@H](Cc1nncn1C)c1cccc(NC(=O)c2nc(C(F)(F)F)c[nH]2)c1` [Compound 326, (R)-N-(3-(1-(4-methyl-4H-1,2,4-triazol-3-yl)propan-2-yl)phenyl)-4-(trifluoromethyl)-1H-imidazole-2-carboxamide], for which, in assay [1], the fold induction at 0.37 µM was at most 2.5, the fold induction at 1.11 µM was at most 2.5 and the fold induction at 10 µM fell in the range of 2.51 to 4. In assay [2], the fold induction at 3 µM is below 2 and the fold induction at 10 µM was below 2. In assay [3], the “CD69 MFI AUC” value is given as “A (A indicates ≤0.5)”.

Turning to `Cn1cnnc1[C@@H]1C[C@@H]1c1cccc(N2Cc3c(ccnc3C(F)(F)F)C2=O)c1` [Compound 369, 2-{3-[(1S,2R)-2-(4-methyl-4H-1,2,4-triazol-3-yl)cyclopropyl]phenyl}-4-(trifluoromethyl)-1H,2H,3H-pyrrolo[3,4-c]pyridin-1-one], in assay [4], the fold induction at 1 µM was 0.051 to 0.1 and the fold induction at 8 µM lay in the range of 0.101 to 0.15. In assay [1], the fold induction at 0.37 µM is at most 2.5, the fold induction at 1.11 µM was at most 2.5 and the fold induction at 10 µM lay in the range of 2.51 to 4. In assay [2], the fold induction at 3 µM was below 2 and the fold induction at 10 µM was below 2. In addition, in assay [5], the fold induction at 1 µM lay in the range of 0.601 to 0.8 and the fold induction at 8 µM lay within 0.801 to 1. The “CD69 MFI AUC” value in assay [3] is “C (C indicates 1.01-1.50)”.

For the molecule `Cc1cc2c(c(C3CC3)n1)CN(c1cccc([C@H](C)Cc3nncn3C)c1)C2=O` [Compound 372, 4-cyclopropyl-6-methyl-2-{3-[(2R)-1-(4-methyl-4H-1,2,4-triazol-3-yl)propan-2-yl]phenyl}-1H,2H,3H-pyrrolo[3,4-c]pyridin-1-one], in assay [4], the fold induction at 1 µM was 0.051 to 0.1 and the fold induction at 8 µM was in the range of 0.101 to 0.15. Further, in assay [1], the fold induction at 0.37 µM was at most 2.5, the fold induction at 1.11 µM is at most 2.5 and the fold induction at 10 µM was 2.51 to 4. Besides, in assay [2], the fold induction at 3 µM is below 2 and the fold induction at 10 µM is below 2. In assay [5], the fold induction at 1 µM lay within 0.601 to 0.8 and the fold induction at 8 µM lay in the range of 0.801 to 1. The “CD69 MFI AUC” value in assay [3] is “A (A indicates ≤0.5)”.

On to `CNCc1ccc(C(=O)Nc2cccc([C@H](C)Cc3nncn3C)c2)nc1C1CC1` [Compound 376, (R)-6-cyclopropyl-N-(3-(1-(4-methyl-4H-1,2,4-triazol-3-yl)propan-2-yl)phenyl)-5-((methylamino)methyl)picolinamide], for which, in assay [4], the fold induction at 1 µM lay within 0.101 to 0.15 and the fold induction at 8 µM is above 0.201. Also, in assay [1], the fold induction at 0.37 µM is at most 2.5, the fold induction at 1.11 µM is at most 2.5 and the fold induction at 10 µM is above 4.01. In assay [2], the fold induction at 3 µM is below 2 and the fold induction at 10 µM is below 2. Besides, in assay [5], the fold induction at 1 µM lay in the range of 0.801 to 1 and the fold induction at 8 µM is above 1. The “CD69 MFI AUC” value in assay [3] was “B (B indicates 0.5-1.00)”.
